Laboratory results reported in patent US7790898B2, “Substituted 3-phenylpiperidine compounds, their preparation and use” (Gruenenthal GmbH, priority 2004, dated 2010).

system: L-calcium channel benzothiazepine binding site; assay: Binding at the L-calcium channel benzothiazepine binding site (diltiazem binding); details: 10 μM test compound; [3H]-cis-(+)-diltiazem 5 nM; rat cerebral cortex membranes; 20 minutes at 25° C.
Method: Biological Data: Investigations on Binding at the L-Calcium Channel Benzothiazepine Binding Site (Diltiazem Binding)
The biological membrane material was isolated from rat cerebral cortex. [^3H]-cis-(+)-diltiazem (5 nM in the batch) was used as ligand. Incubation was for 20 minutes at 25° C. The radioactivity measured in the presence of (±)-diltiazem (10^−6 M in the batch) is defined as the non-specific binding. The non-bound fraction of the radioactive ligand was separated after completion of the incubation, using a filtration process through Whatman glass fiber GF/B membranes. After being washed, the membranes were then measured in a β-counter. The method was developed based on the publication by Schoemaker and Langer (H. Schoemaker and S. Z. Langer (1985) Eur. J. Pharmacol. 111, 273-277).

Compound | Diltiazem binding [10 μM] % inhibition
COc1cccc(C2(O)CCCN(Cc3cccc(Br)c3)C2)c1.Cl (centres unmarked) [Example 49, 1-(3-bromobenzyl)-3-(3-methoxyphenyl)-piperidine-3-ol hydrochloride] | 90.4%
COc1cccc(C2(O)CCCN(Cc3cccs3)C2)c1.Cl (centres unmarked) [Example 46, 3-(3-methoxyphenyl)-1-thiophen-2-ylmethyl-piperidine-3-ol hydrochloride] | 81.8%
COc1cccc(C2(O)CCCN(Cc3ccc([N+](=O)[O-])cc3)C2)c1.Cl (centres unmarked) [Example 42, 3-(3-methoxyphenyl)-1-(4-nitrobenzyl)-piperidine-3-ol hydrochloride] | 50%
COc1cccc(C2(O)CCCN(CC(c3ccccc3)c3ccccc3)C2)c1.Cl (centres unmarked) [Example 48, 1-(2,2-diphenyl-ethyl)-3-(3-methoxyphenyl)-piperidine-3-ol hydrochloride] | 88.2%
COc1cccc(C2(O)CCCN(Cc3ccc(Cl)c(Cl)c3)C2)c1.Cl (centres unmarked) [Example 37, 1-(3,4-dichlorbenzyl)-3-(3-methoxyphenyl)-piperidine-3-ol hydrochloride] | 80.7%
COc1cccc(C2(O)CCCN(Cc3cc(C(F)(F)F)cc(C(F)(F)F)c3)C2)c1.Cl (centres unmarked) [Example 52, 1-(3,5-bis-trifluoromethyl-benzyl)-3-(3-methoxyphenyl)-piperidine-3-ol hydrochloride] | 75.9%
COc1cccc(C2(O)CCCN(Cc3ccc(C#N)cc3)C2)c1.Cl (centres unmarked) [Example 44, 4-[3-hydroxy-3-(3-methoxyphenyl)-piperidine-1-ylmethyl]-benzonitrile hydrochloride] | 52.3%
COc1cccc(C2(O)CCCN(Cc3ccc(F)cc3)C2)c1.Cl (centres unmarked) [Example 33, 1-(4-fluorobenzyl)-3-(3-methoxyphenyl)-piperidine-3-ol hydrochloride] | 95%
COc1cccc(C2(O)CCCN(CCOc3ccccc3)C2)c1.Cl (centres unmarked) [Example 41, 3-(3-methoxyphenyl)-1-(2-phenoxy-ethyl)-piperidine-3-ol hydrochloride] | 92.7%
COc1cccc(C2(O)CCCN(Cc3ccc(C)c([N+](=O)[O-])c3)C2)c1.Cl (centres unmarked) [Example 50, 3-(3-methoxyphenyl)-1-(4-methyl-3-nitro-benzyl)-piperidine-3-ol hydrochloride] | 73.8%
COc1cccc(C2(O)CCCN(Cc3cccc(C(F)(F)F)c3)C2)c1.Cl (centres unmarked) [Example 40, 3-(3-methoxyphenyl)-1-(3-trifluoromethylbenzyl)-piperidine-3-ol hydrochloride] | 85.9%
COc1cccc(C2(O)CCCN(CCc3ccccc3)C2)c1.Cl (centres unmarked) [Example 47, 3-(3-methoxyphenyl)-1-phenethyl-piperidine-3-ol hydrochloride] | 79.4%
COc1cccc(C2(O)CCCN(Cc3ccc(C)cc3)C2)c1.Cl (centres unmarked) [Example 39, 3-(3-methoxyphenyl)-1-(4-methylbenzyl)-piperidine-3-ol hydrochloride] | 76%
COc1cccc(C2(O)CCCN(Cc3ccc(Cl)c([N+](=O)[O-])c3)C2)c1.Cl (centres unmarked) [Example 51, 1-(4-chloro-3-nitro-benzyl)-3-(3-methoxyphenyl)-piperidine-3-ol hydrochloride] | 81.4%
COc1cccc(C2(O)CCCN(C(=O)c3ccc(C)cc3)C2)c1 (centres unmarked) [Example 9, [3-hydroxy-3-(3-methoxyphenyl)-piperidine-1-yl]-p-tolyl-methanone] | 55.8%
COc1cccc(C2(O)CCCN(Cc3cccc(F)c3)C2)c1.Cl (centres unmarked) [Example 32, 1-(3-fluorobenzyl)-3-(3-methoxyphenyl)-piperidine-3-ol hydrochloride] | 83.7%
COc1cccc(C2(O)CCCN(Cc3cc(F)cc(F)c3)C2)c1.Cl (centres unmarked) [Example 36, 1-(3,5-difluorobenzyl)-3-(3-methoxyphenyl)-piperidine-3-ol hydrochloride] | 57.4%
COc1cccc(C2(O)CCCN(Cc3ccc(Br)cc3)C2)c1.Cl (centres unmarked) [Example 34, 1-(4-bromobenzyl)-3-(3-methoxyphenyl)-piperidine-3-ol hydrochloride] | 78.7%
COc1ccc(CN2CCCC(O)(c3cccc(C)c3)C2)cc1.Cl (centres unmarked) [Example 43, 1-(4-methoxybenzyl)-3-(3-methylphenyl)-piperidine-3-ol hydrochloride] | 55%

same assay, conditions: radioligand; rat cerebral cortex membranes; N=3, mean ±SEM; read-out: KD value for this high affinity binding site

Compound | Kd
[^3H]-cis-(+)-diltiazem [reference compound] | 4.1 ± 0.75 nM
